# From patent US12692269B2, “Therapeutic compounds” (Genentech, Inc., priority 2019, dated 2026)
# What was measured:
# Type in all cases: binding
# [1] = biological target: TEAD2 TAZ (amino acids 13-57) (Homo sapiens, UniProt Q15562); assay: TEAD2-TAZ HTRF (TR-FRET) protein-protein interaction assay; conditions: for TEAD2 TAZ HTRF combined: Max % Inhibition: TEAD2, TAZ peptide; for EC50: TEAD2-TAZ HTRF, TR-FRET 665 nm/615 nm, read-out: TEAD2 TAZ HTRF combined: EC50
# In short: (§1)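 His-tagged TEAD YAP-binding domain (aa 217-447) pre-bound to Eu anti-His tracer, incubated with compound 30 min, then biotinylated YAP (aa 50-100) or TAZ (aa 13-57) peptide with streptavidin-XL665 added for 60 min at room temperature. TR-FRET read at 665/615 nm; IC50 or EC50 from four-parameter fit.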
# [2] = biological target: TEAD4 TAZ (amino acids 13-57) (Homo sapiens, UniProt Q15561); assay: TEAD4-TAZ HTRF (TR-FRET) protein-protein interaction assay; conditions: for TEAD4 TAZ HTRF combined: Max % Inhibition: TEAD4, TAZ peptide; for EC50: TEAD4-TAZ HTRF, TR-FRET 665 nm/615 nm, read-out: TEAD4 TAZ HTRF combined: EC50
# Sequence of TEAD4 TAZ (amino acids 13-57) (Q15561 217-434 limits assumed): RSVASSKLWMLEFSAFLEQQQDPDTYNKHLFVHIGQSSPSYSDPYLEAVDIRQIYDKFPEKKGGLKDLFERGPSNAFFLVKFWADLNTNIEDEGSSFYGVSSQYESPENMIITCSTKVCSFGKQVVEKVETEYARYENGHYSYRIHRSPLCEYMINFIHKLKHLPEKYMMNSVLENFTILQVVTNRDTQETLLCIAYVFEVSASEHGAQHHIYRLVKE
# In short: as §1
# [3] = biological target: TEAD4 YAP50-100 (Homo sapiens, UniProt Q15561); assay: TEAD4-YAP HTRF (TR-FRET) protein-protein interaction assay; conditions: TEAD4, YAP peptide 50-100, HTRF; for EC50: read-out: TEAD4 YAP50-100 HTRF combined: EC50
# Sequence of TEAD4 YAP50-100 (Q15561 217-434 limits assumed): as above
# In short: as §1
# [4] = biological target: TEAD2 YAP50-100 (Homo sapiens, UniProt Q15562); assay: TEAD2-YAP HTRF (TR-FRET) protein-protein interaction assay; conditions: TEAD2, YAP peptide 50-100, HTRF; for EC50: read-out: TEAD2 YAP50-100 HTRF combined: EC50
# Sequence of TEAD2 YAP50-100 (Q15562 217-447): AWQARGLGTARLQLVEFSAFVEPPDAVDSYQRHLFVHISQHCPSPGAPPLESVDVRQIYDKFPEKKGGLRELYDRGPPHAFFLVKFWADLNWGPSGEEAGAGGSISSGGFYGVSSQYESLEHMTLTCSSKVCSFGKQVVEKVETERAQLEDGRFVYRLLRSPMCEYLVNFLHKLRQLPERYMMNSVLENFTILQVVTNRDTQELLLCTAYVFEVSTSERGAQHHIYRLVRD
# In short: as §1
# [5] = biological target: TEAD3 TAZ (amino acids 13-57) (Homo sapiens, UniProt Q99594); assay: TEAD3-TAZ HTRF (TR-FRET) protein-protein interaction assay; conditions: for TEAD3 TAZ HTRF combined: Max % Inhibition: TEAD3, TAZ peptide; for EC50: TEAD3-TAZ HTRF, TR-FRET 665 nm/615 nm, read-out: TEAD3 TAZ HTRF combined: EC50
# Sequence of TEAD3 TAZ (amino acids 13-57) (Q99594 173-435 limits assumed): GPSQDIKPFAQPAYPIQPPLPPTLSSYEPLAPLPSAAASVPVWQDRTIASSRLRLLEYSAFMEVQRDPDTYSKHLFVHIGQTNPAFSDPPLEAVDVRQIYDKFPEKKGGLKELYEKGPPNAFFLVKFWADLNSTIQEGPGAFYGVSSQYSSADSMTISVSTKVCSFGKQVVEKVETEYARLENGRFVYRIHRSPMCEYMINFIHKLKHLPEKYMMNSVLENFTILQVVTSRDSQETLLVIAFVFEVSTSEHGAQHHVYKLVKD
# In short: as §1
# [6] = biological target: TEAD3 YAP50-100 (Homo sapiens, UniProt Q99594); assay: TEAD3-YAP HTRF (TR-FRET) protein-protein interaction assay; conditions: TEAD3, YAP peptide 50-100, HTRF; for EC50: read-out: TEAD3 YAP50-100 HTRF combined: EC50
# Sequence of TEAD3 YAP50-100 (Q99594 173-435 limits assumed): as above
# In short: as §1
# [7] = biological target: TEAD1 YAP50-100 (Homo sapiens, UniProt P28347); assay: TEAD1-YAP HTRF (TR-FRET) protein-protein interaction assay; conditions: TEAD1, YAP peptide 50-100, HTRF; for EC50: read-out: TEAD1 YAP50-100 HTRF combined: EC50
# Sequence of TEAD1 YAP50-100 (P28347 167-426 limits assumed): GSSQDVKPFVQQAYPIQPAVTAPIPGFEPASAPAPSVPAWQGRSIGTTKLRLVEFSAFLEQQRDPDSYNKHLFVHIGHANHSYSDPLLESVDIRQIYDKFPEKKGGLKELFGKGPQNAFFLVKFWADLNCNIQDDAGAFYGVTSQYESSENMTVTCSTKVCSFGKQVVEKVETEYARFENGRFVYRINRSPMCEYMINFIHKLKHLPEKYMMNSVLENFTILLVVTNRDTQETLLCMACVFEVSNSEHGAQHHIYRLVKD
# In short: as §1
# [8] = biological target: TEAD1 TAZ (amino acids 13-57) (Homo sapiens, UniProt P28347); assay: TEAD1-TAZ HTRF (TR-FRET) protein-protein interaction assay; conditions: for TEAD1 TAZ HTRF combined: Max % Inhibition: TEAD1, TAZ peptide; for EC50: TEAD1-TAZ HTRF, TR-FRET 665 nm/615 nm, read-out: TEAD1 TAZ HTRF combined: EC50
# Sequence of TEAD1 TAZ (amino acids 13-57) (P28347 167-426 limits assumed): as above
# In short: as §1
# Sequence of TEAD2 TAZ (amino acids 13-57) (Q15562 217-447): as the sequence (Q15562 217-447) above
Structure (SMILES),TEAD2 TAZ HTRF combined: Max % Inhibition [1],EC50 [1],TEAD4 TAZ HTRF combined: Max % Inhibition [2],EC50 [2],TEAD4 YAP50-100 HTRF combined: Max % Inhibition [3],EC50 [3],TEAD2 YAP50-100 HTRF combined: Max % Inhibition [4],EC50 [4],TEAD3 TAZ HTRF combined: Max % Inhibition [5],EC50 [5],TEAD3 YAP50-100 HTRF combined: Max % Inhibition [6],EC50 [6],TEAD1 YAP50-100 HTRF combined: Max % Inhibition [7],EC50 [7],TEAD1 TAZ HTRF combined: Max % Inhibition [8],EC50 [8]
"O=C(c1c(-c2ncccn2)nn2c(=O)cc(-c3ccc(C4CCCCC4)cc3)[nH]c12)N1CC(CF)C1 [Compound 15, 5-(4-Cyclohexylphenyl)-3-(3-(fluoromethyl)azetidine-1-carbonyl)-2-(pyrimidin-2-yl)pyrazolo[1,5-a]pyrimidin-7(4H)-one]",62.0%,10 nM,49.0%,20 nM,50.5%,30 nM,64.8%,10 nM,55.8%,70 nM,64.0%,70 nM,74.0%,30 nM,64.0%,40 nM
"CC1CCN1C(=O)c1nn2c(=O)cc(-c3ccc(C4CCCCC4)cc3)[nH]c2c1C(=O)N1CC(CF)C1 (single isomer, unassigned) [Enantiomer A, Example 33, 5-(4-Cyclohexylphenyl)-3-(3-(fluoromethyl)azetidine-1-carbonyl)-2-(2-methylazetidine-1-carbonyl)pyrazolo[1,5-a]pyrimidin-7(4H)-one]",63.0%,20 nM,41.5%,410 nM,48.5%,460 nM,67.5%,20 nM,58.5%,210 nM,71.5%,180 nM,71.0%,70 nM,61.5%,100 nM
"CN(C)C(=O)c1nn2c(=O)cc(-c3ccc(C4CCCCC4)c(F)c3)[nH]c2c1C(=O)N1CC(CF)C1 [Compound 4, 5-(4-Cyclohexyl-3-fluorophenyl)-3-(3-(fluoromethyl)azetidine-1-carbonyl)-N,N-dimethyl-7-oxo-4,7-dihydropyrazolo[1,5-a]pyrimidine-2-carboxamide]",64.5%,10 nM,36.0%,150 nM,48.5%,200 nM,64.0%,10 nM,59.0%,80 nM,69.0%,70 nM,69.0%,40 nM,59.0%,50 nM
"CCn1cnc(-c2nn3c(=O)cc(-c4ccc(C5CCCCC5)cc4)[nH]c3c2C(=O)N2CC(CF)C2)c1 [Compound 31, 5-(4-Cyclohexylphenyl)-2-(1-ethyl-1H-imidazol-4-yl)-3-(3-(fluoromethyl)azetidine-1-carbonyl)pyrazolo[1,5-a]pyrimidin-7(4H)-one]",60.5%,20 nM,32.0%,620 nM,36.0%,780 nM,62.0%,20 nM,49.5%,210 nM,59.0%,170 nM,65.0%,80 nM,60.5%,120 nM
